Peptide text beside a SMILES is read from it.
Experiments:
[1] = Stability of C15 in homogenates of frozen and fresh human skin; assay type: in vitro ADME
Experimental: An initial study was performed comparing stability of human C15 versus Mouse C15. Homogenates of frozen and fresh human skin were prepared to evaluate the degradation of C15 in skin. Frozen or fresh human skin were separately minced and homogenized in 3 ml water and the supernatant isolated. Supernatant was mixed with solutions of mouse or human C15 to yield a 0.5 mg/ml C15 solution. Each solution was incubated at 37° C. and samples were taken at 0, 1, 2 and 24 hours for analysis of C15 (FIG. 3).

[2] = tested on: IFNγ/LPS stimulated human macrophages; experiment: Cytokine secretion by IFNγ/LPS stimulated human macrophages (Luminex); assay type: cell-based; details: 16 hours post-stimulation
[3] = tested on: K5.Stat3C recombinant mice; experiment: K5.Stat3C mouse model of psoriasis (TPA induced lesions); assay type: in vivo; details: expected
Experimental: In this example, the therapeutic activity of a human chemerin C15 peptide is tested in a mouse model of psoriasis. K5.Stat3C recombinant mice resemble human psoriasis based on clinical, histological, immunophenotypic, and biochemical criteria used to evaluate animal models of psoriasis. The K5.Stat3C mice constitutively express activated […] in keritinocytes and epidermal hyperplasia upon stimulation with 12-0-tetradecanoylphorbol-13-acetate (TPA) topical treatment.
In an exemplary protocol, mice are treated topically on the ear with TPA (e.g. 3.4 nmol TPA in acetone) or acetone control to induce skin lesions 3 times per week for 4-8 weeks. Real-time PCR in skin samples is used to confirm upregulation of cytokine expression, including IL-23, IL012, TNF-α, IL-β, and/or IL-6. Following induction of skin lesions, formulations comprising the human chemerin C15 peptide or vehicle control are applied topically to the skin lesions daily for 6-12 days. Improvement in the lesions is assessed daily.

[4] = tested on: IFNγ/LPS stimulated human macrophages; experiment: Cytokine secretion by IFNγ/LPS stimulated human macrophages (Luminex); assay type: cell-based
Description: In this example, the ability of human chemerin C15 to inhibit secretion of cytokines from activated human macrophages was examined. For this experiment, the activity of the human chemerin C15 peptide […] (SEQ ID NO: 1) was compared to that of the human chemerin C17 peptide […] (SEQ ID NO: 25). The C15 and C17 peptides were synthesized by solid phase synthesis using BOP coupling of FMOC protected amino acids with final cleavage from the resin with TFA. Peptides were purified by reverse phase C18 chromatography using a water/acetonitrile gradient.
Human macrophages were derived from human CD14+ monocytes obtained from 3 donors. On Day 1, the isolated monocytes were thawed and seeded in triplicate for each group in 1 ml RPMI 1640 GlutaMAX™ media (supplemented with 10% FBS, 100 U/ml penicillin, 100 μg/ml streptomycin, 0.05 μM mercaptoethanol, 1% NEAA and 1% sodium pyruvate) per well of a 24 well cell culture dish at a cell concentration of 5×10^5 cells/ml. M-CSF was added to each well to give a final concentration of 25 ng/ml. Cells were grown for 7 days at 37° C. with 5% CO2 to differentiate the cells into macrophages. Media and M-CSF were replaced after 4 days.
Following differentiation, the media containing M-CSF was removed. The cells were washed and vehicle control, dexamethasone, C15 or C17 were added to the appropriate wells. The test peptides were dissolved in 50% DMSO/water prior to addition. C-15 (MW 1669; 16.7 mg/ml) was added to a final concentration of […] and C17 (MW 1904; 19.0 mg/ml) was added to a final concentration of 1 μM. Dexamethasone was added to a final concentration of 1 μM. Following addition to the wells, the plates were incubated at 37° C. with 5% CO2 for 1 hour. An equal volume of complete media was added to the non-treated wells. Control or test treatments were maintained at the correct concentration throughout the assay.
IFNγ (final concentration 20 ng/ml) was then added to the appropriate wells. Following IFNγ addition, the plates were incubated at 37° C. with 5% CO2 for 4 hours. The concentration of vehicle control, test treatments or dexamethasone was maintained during IFNγ stimulation. LPS (final concentration 10 ng/ml) was then added to the appropriate wells. Following LPS addition, the plates were incubated at 37° C. with 5% CO2 for 15 hours. After 6 hours, ˜60 μl of culture supernatant was removed from all wells and stored at −80° C. for analysis. The concentration of vehicle control, test treatments or dexamethasone was maintained during LPS stimulation.
At 15 hours post LPS stimulation, the remaining cell culture supernatant was harvested and stored at −80° C. until assayed. The concentration of vehicle control, test treatments or dexamethasone was maintained until culture termination.
Cell culture supernatants taken at 6 hours and 15 hours post LPS addition were assayed for the production of RANTES, TNFα, IL-1β, IL-6, IL-10, IL-12p40 (subunit common to IL-12 and IL-23) and IL-15 (negative control) using Luminex® technology (Procarta human cytokine kit; Panomics) following the manufacturer's instructions.
In this experiment, the importance of the FYFP motif (SEQ ID NO: 2) in the human chemerin C15 peptide on anti-inflammatory activity was examined. The ability of the human chemerin C15 peptide […] (SEQ ID NO: 1) was compared to that of a substituted chemerin C15 peptide having the amino acid sequence […] (SEQ ID NO: 27), where the second phenylalanine in the peptide is modified to alanine. The experiment was performed as described in Example 1. 0.1 pM 0.5 pM and 1 pM concentrations of the C15 and C15 mutant peptides were tested. Cytokine expression was determined as described in Example 1.

[5] = after 24 hours, 37° C., 0.5 mg/ml
[6] = Example 3, 0.1 pM 0.5 pM and 1 pM tested, FIG. 3

## C[C@H](N)C(=O)NCC(=O)N[C@@H](CCC(=O)O)C(=O)N[C@@H](CC(=O)O)C(=O)N1CCC[C@H]1C(=O)N[C@@H](Cc1c[nH]cn1)C(=O)N[C@@H](CO)C(=O)N[C@@H](Cc1ccccc1)C(=O)N[C@@H](Cc1ccc(O)cc1)C(=O)N[C@@H](Cc1ccccc1)C(=O)N1CCC[C@H]1C(=O)NCC(=O)N[C@@H](CCC(N)=O)C(=O)N[C@@H](Cc1ccccc1)C(=O)N[C@@H](C)C(=O)O [C15 (human)] (H-AGEDPHSFYFPGQFA-OH; N-terminus and C-terminus assumed)
[1]; [5]
  C15 degradation in homogenate from fresh skin: 98%
  C15 degradation in homogenate from frozen skin: 25%
[1]; human vs mouse C15
  relative stability in skin homogenate: more stable than mouse C15
[2]; 1 pM
  inhibition of human macrophage secretion of IL-1β: approximately 45%
  inhibition of human macrophage secretion of RANTES: ~65%
[2]
  inhibition of human macrophage secretion of IL-12p40: approximately 55%
[3]; topical daily for 6-12 days
  cytokine expression in the psoriatic lesions: decreased cytokine expression
[3]; visual inspection and histological examination
  psoriatic phenotype of the epidermis: improvement in the psoriatic phenotype of the epidermis
[4]; 1 pM
  inhibition of newly synthesized RANTES (difference between the 6 and 15 hour time points): approximately 90%
[4]; C15 peptide treatment
  decrease in IL-10: ~25%
[4]; [6]
  percent inhibition of RANTES expression: 47%
  percent inhibition of TNFα expression: 61%
[4]; within 15 hours
  inhibition of cytokine production/secretion in vitro: 40-60%

## C[C@H](N)C(=O)NCC(=O)N[C@@H](CCC(=O)O)C(=O)N[C@@H](CC(=O)O)C(=O)N1CCC[C@H]1C(=O)N[C@@H](Cc1c[nH]cn1)C(=O)N[C@@H](CO)C(=O)N[C@@H](Cc1ccccc1)C(=O)N[C@@H](Cc1ccc(O)cc1)C(=O)N[C@@H](Cc1ccccc1)C(=O)N1CCC[C@H]1C(=O)NCC(=O)N[C@@H](CCC(N)=O)C(=O)N[C@@H](Cc1ccccc1)C(=O)N[C@@H](C)C(=O)N[C@@H](Cc1ccccc1)C(=O)N[C@@H](CO)C(=O)O [C17 (human)] (H-AGEDPHSFYFPGQFAFS-OH; N-terminus and C-terminus assumed)
[4]; 1 μM
  inhibition of cytokine production: did not exhibit any significant inhibition

Reference: patent US20140349943A1, “TOPICAL FORMULATIONS OF CHEMERIN C15 PEPTIDES FOR THE TREATMENT OF DERMATOLOGICAL CONDITIONS” (priority 2011, published 2014)
